Laboratory results published in patent US7196085B2, “Phthalazinone derivatives” (KuDOS Pharmaceuticals Limited, priority 2002, dated 2007).

melting point [°C]	SMILES
131 to 135	O=C1CC(c2ccccc2)C(=O)N1c1cc(Cc2n[nH]c(=O)c3ccccc23)ccc1Cl (stereo not shown) [Example 39, 1-[2-chloro-5-(4-oxo-3,4-dihydrophalazin-1-ylmethyl)phenyl]-3-phenylpyrrolidine-2,5-dione]
146 to 149	CCC/C=C/CC1CC(=O)N(c2cc(Cc3n[nH]c(=O)c4ccccc34)ccc2F)C1=O (stereo not shown) [Example 29, 1-[2-fluoro-5-(4-oxo-3,4-dihydrophthalazin-1-ylmethyl)phenyl]-3-hex-2-enylpyrrolidine-2,5-dione]
121 to 127	O=C(N[C@H]1CC(=O)N(c2cc(Cc3n[nH]c(=O)c4ccccc34)ccc2F)C1=O)OCc1ccccc1 [Example 35, (S)-3-benzyloxycarbonylamino-1-[2-fluoro-5-(4-oxo-3,4-dihydrophthalazin-1-ylmethyl)phenyl]pyrrolidine-2,5-dione]
138 to 141	CCCCC/C=C/CC1CC(=O)N(c2cc(Cc3n[nH]c(=O)c4ccccc34)ccc2F)C1=O (stereo not shown) [Example 28, 1-[2-fluoro-5-(4-oxo-3,4-dihydrophthalazin-1-ylmethyl)phenyl]-3-oct-2-enylpyrrolidine-2,5-dione]
229 to 230	O=C1C2CC2C(=O)N1c1cc(Cc2n[nH]c(=O)c3ccccc23)ccc1Cl (stereo not shown) [Example 41, 3-[2-chloro-5-(4-oxo-3,4-dihydrophthalazin-1-ylmethyl)phenyl]-3-azabicyclo[3.1.0]hexane-2,4-dione]
146 to 149	CCCCCC/C=C/CC1CC(=O)N(c2cc(Cc3n[nH]c(=O)c4ccccc34)ccc2F)C1=O (stereo not shown) [Example 30, 1-[2-Fluoro-5-(4-oxo-3,4-dihydrophthalazin-1-ylmethyl)phenyl]-3-non-2-enylpyrrolidine-2,5-dione]
215 to 220	O=C1CC2(CCCC2)C(=O)N1c1cc(Cc2n[nH]c(=O)c3ccccc23)ccc1F [Example 32, 2-[2-fluoro-5-(4-oxo-3,4-dihydrophthalazin-1-ylmethyl)phenyl]-2-azaspiro[4.4]nonane-1,3-dione]
